The GI50 is the concentration at which growth is held to half of that of the control.

From ChEMBL document CHEMBL1201862, “PubChem BioAssay data set” (2004) come the findings set out here.

Some test systems named below: HT-29; A498; HCC 2998; SNB-75; SF-268; HOP-92; LXFL 529; EKVX; UO-31; UACC-62; RPMI-8226; A549; M14; NCI-H460; NCI-H522; SF-539; MOLT-4; BT-549; DU-145; T47D.
What all share (assay): DTP human tumour cell line panel, 48 h

Structures are written as SMILES.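 Five concentrations, 48 hours, 96-well plates. At the GI50, growth is halved.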 Activity calls are given as the source filed them. Cut-off read from the data, not from the text of the source: active = GI50 up to about 1.1 µM and inactive = higher.

As to `Cc1nc2c(o1)/C(=N\c1ccccc1)c1ccccc1C2=O`, the GI50 is 18.7 µM (inactive) in the test with HT-29; 34.1 µM (inactive) in the test with A498; 18.6 µM (inactive) in the test with HCC 2998; 10.9 µM (inactive) in the test on SNB-75; 7.83 µM (inactive) with SF-268; 12.3 µM (inactive) with HOP-92. For the same compound, the GI50 in the test with LXFL 529 was 11.9 µM (inactive); with EKVX, 14.2 µM (inactive); in the test with UO-31 it was 7.89 µM (inactive); in the test on UACC-62 it was 3.37 µM (inactive); with RPMI-8226 it was 5.66 µM (inactive); with A549, 20.3 µM (inactive). Also, the GI50 with M14 was 9.64 µM (inactive); with NCI-H460 it was 12.6 µM (inactive); with NCI-H522, 4.57 µM (inactive); in the test with SF-539 it was 5.16 µM (inactive); with MOLT-4 it was 18 µM (inactive).
Take `COc1ccc2nc3cc(Cl)ccc3c(NCCCN(CCCl)CCCl)c2c1`: the GI50 in the test on HT-29 was 0.0119 µM (active); in the test with A498 it was 0.0163 µM (active); in the test on HCC 2998 it was 0.0596 µM (active); in the test on SNB-75, 0.177 µM (active); in the test with SF-268, 0.0164 µM (active); in the test on HOP-92 it was 0.0126 µM (active). For the same compound, the GI50 was 0.0166 µM (active) in the test on LXFL 529; 0.11 µM (active) in the test with EKVX; 0.129 µM (active) in the test with BT-549; 0.0121 µM (active) in the test with DU-145; 0.0472 µM (active) with UO-31; 0.0156 µM (active) with UACC-62. For the same compound, the GI50 in the test on RPMI-8226 is < 0.01 µM (active); in the test with A549 it was < 0.0122 µM (active); with M14 it was 0.0408 µM (active); with NCI-H460, < 0.01 µM (active); with NCI-H522, 0.0105 µM (active); in the test with SF-539, 0.0111 µM (active). The GI50 with T47D and in the test with MOLT-4 was < 0.01 µM (active) in each case.
In the case of `O=C1c2c(O)cccc2C(C(=O)CCCCCC(=O)C2c3cccc(O)c3C(=O)c3c(O)cccc32)c2cccc(O)c21`, the GI50 in the test on HT-29 is 4.49 µM (inactive); in the test with A498, 4.04 µM (inactive); with HCC 2998, 2.27 µM (inactive); with SNB-75, 1.03 µM (active); with SF-268, 1.04 µM (active); in the test with HOP-92, 7.98 µM (inactive). The GI50 with LXFL 529 was 0.697 µM (active); with EKVX, 0.957 µM (active); in the test on UO-31, 1.15 µM (inactive); with UACC-62 it was 1.12 µM (active); in the test with RPMI-8226, 0.741 µM (active); in the test on A549, 1.03 µM (active). Further, the GI50 is 2.45 µM (inactive) in the test with M14; 0.586 µM (active) in the test with NCI-H460; 0.638 µM (active) in the test with NCI-H522; 0.537 µM (active) in the test on SF-539; 9.53 µM (inactive) in the test on MOLT-4.
On to `CC(=O)c1cccc(NC(=O)C(=O)Nn2c(N)nnc2N)c1`, for which the GI50 in the test with HT-29, with A498, in the test with HCC 2998, in the test with SNB-75, in the test on SF-268 and in the test with HOP-92 was > 100 µM (inactive) in each case. Also, the GI50 with LXFL 529, with EKVX, with UO-31, in the test with UACC-62, in the test on RPMI-8226 and in the test on A549 was > 100 µM (inactive) throughout. Moreover, the GI50 in the test on M14, in the test with NCI-H460, in the test with NCI-H522, in the test with SF-539 and in the test on MOLT-4 was > 100 µM (inactive) throughout.
